Laboratory results taken from patent US9108936B2, “Substituted 4-aminobenzamides as KCNQ2/3 modulators” (GRUENENTHAL GMBH, priority 2012, dated 2015).
pEC50: −log10 of the molar value.

Experiments:
Male Sprague-Dawley rats = assay: Low-intensity tail flick test (rat); format: in vivo; settings: for ED50: po, peroral, at time of maximum efficacy
Procedure: Method II. Low-Intensity Tail Flick Test (Rat)
In the low-intensity tail flick test, the determination of the antinociceptive effect of the compounds according to the invention towards an acute noxious thermal stimulus is carried out by measuring the withdrawal reflex of the rat tail (tail flick) in response to a radiant heat beam (analgesia meter; model 2011 of the company Rhema Labortechnik, Hofheim, Germany) according to the method described by D'Amour and Smith (J. Pharm. Exp. Ther. 72, 74 79 (1941). To this end, the rats were placed in a plexiglas restrainer, and a low-intensity radiant heat beam (48° C.) was focused onto the dorsal surface of the tail root. The stimulus intensity was adjusted to result in a mean pre-drug control withdrawal latency of about 7 s, thus also allowing a supraspinal modulation of the spinally mediated acute nociceptive reflex. A cutoff time of 30 s was applied to avoid tissue damage. Male Sprague-Dawley rats (Janvier, Le Genest St. Isle, Frankreich) with weights of 200-250 g were used. 10 rats were used per group. Before administration of a compound according to the invention, the animals were pre-tested twice in the course of five minutes and the mean of these measurements was calculated as the pre-test mean. The antinociceptive effect was determined at 20, 40 and 60 min after peroral compound administration. The antinociceptive effect was calculated based on the increase in the tail withdrawal latency according to the following formula and is expressed as percentage of the maximum possible effect (MPE [%]): MPE=[(T1−T0)/(T2−T0)]*100
In this, T0 is the control latency time before and T1 the latency time after administration of the compound, T2 is the cutoff time and MPE is the maximum possible effect. Employing variant analysis (repeated measures ANOVA) allowed testing of statistically significant differences between the compounds according to the invention and the vehicle group. The significance level was set to p≦0.05. To determine the dose dependency, the particular compound according to the invention was administered in 3-5 logarithmically increasing doses, including a threshold dose and a maximum effective dose, and the ED50 values were determined with the aid of regression analysis. The ED50 calculation was performed at the time of maximum efficacy (usually 20 min after administration of the compounds).

KCNQ2/3 channels = target: T1, KCNQ2/3 channels (Homo sapiens, UniProt O43525+O43526); assay: Fluorescence assay using a voltage sensitive dye (fluorimetry); format: cell-based; settings: CHO-K1 cells expressing KCNQ2/3; for Emax: plateau effect relative to saturated Retigabine (50 μM), read-out: Fluorimetry % efficacy (retigabine = 100%); for pEC50: voltage-sensitive dye, KCl depolarization, read-out: Fluorimetry EC50/IC50
T1 construct: expressed in transfected cells; host or cells: CHO-K1
Excerpt: Method I. Fluorescence Assay Using a Voltage Sensitive Dye (Fluorimetry)
The modulation of the KCNQ opening state (and consequently the voltage potential of a cell) by test compounds such as compounds according to the present invention results in an increased or reduced amount of a voltage-sensitive dye in the cytoplasm of the cells tested. These voltage-sensitive dyes are fluorescent dyes and, therefore, are forming the link between cell potential influenced by KCNQ modulation and fluorescence intensity. A KCNQ agonist leads to an opening of the channel, potassium and dye efflux, a following hyperpolarization and a reduction of the inner fluorescence intensity in a kinetic protocol. If applying an ion jump by KCl depolarization, KCNQ agonists increase the ΔF/F value. An antagonist performs vice versa, respectively.
The ‘fluorimetry EC50’ is the half maximum effective concentration (EC50), where the concentration of a drug/compound induces a response halfway between the baseline and maximum plateau effect. In other words, said value represents the concentration of a compound, where 50% of its maximal effect in the fluorimetric assay is observed if the substance concentration is graphed against the corresponding ΔF/F values (for which the calculation method is described below). Therefore, ‘fluorimetry EC50’ is a measure for the compound potency. The compound efficacy is mirrored by ‘fluorimetry % efficacy’ (‘% Efficacy’) and refers to the maximum response achievable by the test compound, i.e. the plateau effect. This drug's plateau effect is related to the plateau effect, which can be achieved by applying a saturated concentration of a reference compound, e.g. Retigabine (50 μM), in independent wells of the same experimental plate or series. A compound showing 100% efficacy is as efficacious as the reference compound (Retigabine) with a saturated concentration.
[…] CHO-K1 cells expressing KCNQ2/3 channels are cultivated adherently at 37° C., 5% CO2 and 95% humidity in cell culture bottles (e.g. 80 cm^2 TC flasks, Nunc) with DMEM-high glucose (Sigma Aldrich, D7777) including 10% FCS (PAN Biotech, e.g. 3302-P270521) or alternatively MEM Alpha Medium (1×, liquid, Invitrogen, #22571), 10% fetal calf serum (FCS) (Invitrogen, #10270-106, heat-inactivated) and the necessary selection antibiotics.
Before being sown out for the measurements, the cells are washed with 1× DPBS buffer Ca^2+/Mg^2+-free (e.g. Invitrogen, #14190-094) and detached from the bottom of the culture vessel by using Accutase (PAA Laboratories, #L11-007) (incubation with Accutase for 15 min at 37° C.). The cell number is determined using a CASY™ cell counter (TCC, Schärfe System). Depending on the optimal density for each individual cell line, 20,000-30,000 cells/well/100 μl are seeded onto 96-well Corning™ CellBIND™ assay plates (Flat Clear Bottom Black Polystyrene Microplates, #3340). Freshly seeded cells are then left to settle for one hour at room temperature, followed by incubation for 24 hours at 37° C., 5% CO2 and 95% humidity.
The voltage-sensitive fluorescent dye from the Membrane Potential Assay Kit (Red™ Bulk format part R8123 for FLIPR, MDS Analytical Technologies™) is prepared by dissolving the contents of one vessel Membrane Potential Assay Kit Red Component A in 200 ml of extracellular buffer (ES buffer, 120 mM NaCl, 1 mM KCl, 10 mM HEPES, 2 mM CaCl2, 2 mM MgCl2, 10 mM glucose; pH 7.4). After removal of the nutrient medium, the cells are washed once with 200 μl of ES buffer, then loaded for 45 min at room temperature in 100 μl of dye solution in the dark.
Fluorescence measurements are carried out in a BMG Labtech FLUOstar™, BMG Labtech NOVOstar™ or BMG Labtech POLARstar™ instrument (525 nm excitation, 560 nm emission, Bottom Read mode). […]

SMILES | Low intensity tail flick, rat, peroral, MPE (dose) (Male Sprague-Dawley rats; dose 14.7 mg/kg) [%] | ED50 (Male Sprague-Dawley rats) [mg/kg] | Emax (KCNQ2/3 channels) [%] | pEC50 (KCNQ2/3 channels) | Low intensity tail flick, rat, peroral, MPE (dose) (Male Sprague-Dawley rats; dose 10 mg/kg) [%]
Cc1cc(N2CCOCC2)cc(C(C)C)c1C(=O)NCc1ccc(F)cc1 [Example 17, N-[(4-Fluorophenyl)methyl]-2-isopropyl-6-methyl-4-morpholin-4-yl-benzamide] | 100 | 2.5 | 179 | 6.18 | 
C=C(C)c1cc(N2CCOCC2)cc(C)c1C(=O)NCc1ccc(C(F)(F)F)cc1 [Example 21, 2-Isopropenyl-6-methyl-4-morpholin-4-yl-N-[[4-(trifluoromethyl)-phenyl]-methyl]-benzamide] |  |  | 118 | 6.20 | 
CCc1cc(N2CCOCC2)cc(CC)c1C(=O)NCc1ccc(Cl)cc1 [Example 41, N-[(4-Chlorophenyl)-methyl]-2,6-diethyl-4-morpholin-4-yl-benzamide] |  |  | 181 | 6.30 | 
CCSc1cc(N2CCOCC2)cc(C)c1C(=O)NCc1cccc(F)c1 [Example 1, 2-Ethylsulfanyl-N-[(3-fluorophenyl)-methyl]-6-methyl-4-morpholin-4-yl-benzamide] |  |  | 163 | 5.83 | 
Cc1cc(N2CCOCC2)cc(C2CC2)c1C(=O)NCc1ccc(F)cc1 [Example 18, 2-Cyclopropyl-N-[(4-fluorophenyl)-methyl]-6-methyl-4-morpholin-4-yl-benzamide] |  |  | 169 | 6.01 | 
COc1cc(N2CCOCC2)cc(C(C)C)c1C(=O)NCc1ccc(Cl)cc1 [Example 40, N-[(4-Chlorophenyl)-methyl]-2-isopropyl-6-methoxy-4-morpholin-4-yl-benzamide] |  |  | 196 | 6.78 | 
Cc1cc(N2CCOCC2)cc(C(F)F)c1C(=O)NCc1ccc(Cl)cc1 [Example 20, N-[(4-Chlorophenyl)-methyl]-2-(difluoro-methyl)-6-methyl-4-morpholin-4-yl-benzamide] |  |  | 144 | 6.15 | 
Cc1cc(N2CCOCC2)cc(C(C)C)c1C(=O)NCc1ccc(Cl)cc1 [Example 14, N-[(4-Chlorophenyl)-methyl]-2-isopropyl-6-methyl-4-morpholin-4-yl-benzamide] |  | 3.6 | 175 | 6.87 | 92
Cc1cc(N2CCCC2)cc(C(F)(F)F)c1C(=O)NCc1cccc(F)c1 [Example 26, N-[(3-Fluorophenyl)-methyl]-2-methyl-4-pyrrolidin-1-yl-6-(trifluoromethyl)-benzamide] |  |  | 156 | 6.34 | 
Cc1cc(N2CCOCC2)cc(C2CC2)c1C(=O)NCc1ccc(C(F)(F)F)cn1 [Example 36, 2-Cyclopropyl-6-methyl-4-morpholin-4-yl-N-[[5-(trifluoromethyl)-pyridin-2-yl]-methyl]-benzamide] |  |  | 89 | 5.28 | 
Cc1cc(N2CCOCC2)cc(C(C)C)c1C(=O)NCC[C@H](O)C(C)(C)C [Example 31, N-[(3S)-3-Hydroxy-4,4-dimethyl-pentyl]-2-isopropyl-6-methyl-4-morpholin-4-yl-benzamide] |  |  | 230 | 6.38 | 
Cc1cc(N2CCOCC2)cc(C2CC2)c1C(=O)NCC[C@H](O)C(C)(C)C [Example 29, 2-Cyclopropyl-N-[(3S)-3-hydroxy-4,4-dimethyl-pentyl]-6-methyl-4-morpholin-4-yl-benzamide] |  |  | 195 | 5.74 | 
